# Results: patent publication US8217164B2, “Use of a lactose-derived C-glycoside compound as an agent for activating and regulating cutaneous immunity” (L'Oreal, priority 2006, dated 2012)
# Tested on: human peripheral blood cells (lymphocyte proliferation)
# Experiment: Immunostimulant activity: lymphocyte proliferation by BrdU labelling
# Type: cell-based
# Conditions: 10 to 0.05 mM, 3 days of culture
# Protocol: The immunostimulant activity is tested in the following way: human peripheral blood cells are cultured in the presence of an RPMI-type culture medium supplemented with L-glutamine (2 mM), penicillin/streptomycin (50 μg/50 IU/ml) and foetal calf serum (10%). The C-glycoside derivatives are added at various concentrations (10 to 0.05 mM), as is phytohaemagglutinin (PHA at 5*G/ml), a positive control for lymphocyte proliferation.
structure (smiles),measurement,value
CC(=O)C[C@@H]1O[C@H](CO)[C@@H](OC2O[C@H](CO)[C@H](O)[C@H](O)[C@H]2O)[C@H](O)[C@H]1O (stereo partly shown) [Compound 2],human lymphocyte proliferation (immunostimulant activity),tendency to stimulate human lymphocyte proliferation at all the concentrations tested
